Measurements from ChEMBL document CHEMBL1150587, “Evaluation of the potential cancer chemotherapeutic efficacy of natural product isolates employing in vivo hollow fiber tests” (J Nat Prod, 2002).
The source made the active and inactive calls. No cut-off for these calls is given here.

Assays:
[1] = test system: Mus musculus; test: Toxicity in tumor cell implanted NCr nu/nu mouse assessed as body weight change at 4.39 umol/kg, ip administered from day 3 to 6 after implantation measured on day 7; assay type: organism-based; details: in vivo
[2] = test system: Mus musculus; test: Toxicity in tumor cell implanted NCr nu/nu mouse assessed as body weight change at 8.78 umol/kg, ip administered from day 3 to 6 after implantation measured on day 7; assay type: organism-based; details: in vivo
[3] = test system: Mus musculus; test: Toxicity in tumor cell implanted NCr nu/nu mouse assessed as body weight change at 17.6 umol/kg, ip administered from day 3 to 6 after implantation measured on day 7; assay type: organism-based; details: in vivo
[4] = test system: Mus musculus; test: Toxicity in tumor cell implanted NCr nu/nu mouse assessed as body weight change at 35.1 umol/kg, ip administered from day 3 to 6 after implantation measured on day 7; assay type: organism-based; details: in vivo
[5] = test system: Mus musculus; test: Toxicity in NCr nu/nu mouse subcutaneously implanted with human KB cells assessed as mortality at 4.39 umol/kg, ip administered on day 10, 13, 16, 20 of implantation; assay type: organism-based; details: in vivo
[6] = test system: Mus musculus; test: Toxicity in NCr nu/nu mouse subcutaneously implanted with human KB cells assessed as mortality at 8.78 umol/kg, ip administered on day 10, 13, 16, 20 of implantation; assay type: organism-based; details: in vivo
[7] = test system: Mus musculus; test: Toxicity in NCr nu/nu mouse subcutaneously implanted with human KB cells assessed as mortality at 17.6 umol/kg, ip administered on day 10, 13, 16, 20 of implantation; assay type: organism-based; details: in vivo
[8] = test system: Mus musculus; test: Toxicity in NCr nu/nu mouse subcutaneously implanted with human KB cells assessed as change in body weight at 4.39 umol/kg, ip administered on day 10, 13, 16, 20 of implantation; assay type: organism-based; details: in vivo
[9] = test system: Mus musculus; test: Toxicity in NCr nu/nu mouse subcutaneously implanted with human KB cells assessed as change in body weight at 8.78 umol/kg, ip administered on day 10, 13, 16, 20 of implantation; assay type: organism-based; details: in vivo
[10] = test system: Mus musculus; test: Toxicity in NCr nu/nu mouse subcutaneously implanted with human KB cells assessed as change in body weight at 17.6 umol/kg, ip administered on day 10, 13, 16, 20 of implantation; assay type: organism-based; details: in vivo
[11] = test system: Mus musculus; test: Toxicity in NCr nu/nu mouse subcutaneously implanted with human KB cells assessed as change in body weight at 35.1 umol/kg, ip administered on day 10, 13, 16, 20 of implantation; assay type: organism-based; details: in vivo
[12] = test system: SW626; test: Growth inhibition of human SW626 cells implanted intraperitoneally to NCr nu/nu mouse at 4.39 to 35.1 umol/kg, ip administered from day 3 to 6 after implantation measured on day 7 by MTT-based hollow-fiber test; assay type: functional
[13] = test system: KB; test: Growth inhibition of human KB cells implanted subcutaneously to NCr nu/nu mouse at 4.39 to 35.1 umol/kg, ip administered from day 3 to 6 after implantation measured on day 7 by MTT-based hollow-fiber test; assay type: functional
[14] = Growth inhibition of human KBV1 cells implanted subcutaneously to NCr nu/nu mouse at 4.39 to 35.1 umol/kg, ip administered from day 3 to 6 after implantation measured on day 7 by MTT-based hollow-fiber test; assay type: functional, KB-V1
[15] = test system: SW626; test: Growth inhibition of human SW626 cells implanted subcutaneously to NCr nu/nu mouse at 4.39 to 35.1 umol/kg, ip administered from day 3 to 6 after implantation measured on day 7 by MTT-based hollow-fiber test; assay type: functional
[16] = test system: KB; test: Growth inhibition of human KB cells implanted subcutaneously to NCr nu/nu mouse assessed as tumor size at 4.39 to 28.5 umol/kg, ip administered on day 10, 13, 16, 20 of implantation; assay type: functional, organism-based
[17] = test system: SK-MEL-2; test: Cytotoxicity against human SK-MEL-2 cells after 72 hrs by SRB assay; assay type: functional, cell-based; details: SK-MEL-2, 72 h
[18] = test system: P388; test: Cytotoxicity against mouse P388 cells after 72 hrs by SRB assay; assay type: functional, cell-based; details: P388, 72 h
[19] = test system: LNCaP; test: Cytotoxicity against human LNCAP cells after 72 hrs by SRB assay; assay type: functional, cell-based
[20] = test system: Lu1; test: Cytotoxicity against human Lu1 cells after 72 hrs by SRB assay; assay type: functional, cell-based; details: Lu1, 72 h
[21] = Cytotoxicity against human KBV1 cells after 72 hrs by SRB assay; assay type: functional, cell-based; details: KB-V1, 72 h
[22] = test system: KB; test: Cytotoxicity against human KB cells after 72 hrs by SRB assay; assay type: functional, cell-based
[23] = test system: Col2; test: Cytotoxicity against human Col2 cells after 72 hrs by SRB assay; assay type: functional, cell-based; details: Col2, 72 h
[24] = test system: SW626; test: Cytotoxicity against human SW626 cells after 72 hrs by SRB assay; assay type: functional, cell-based; details: SW626, 72 h
[25] = test system: KB; test: Growth inhibition of human KB cells implanted intraperitoneally to NCr nu/nu mouse at 4.39 to 35.1 umol/kg, ip administered from day 3 to 6 after implantation measured on day 7 by MTT-based hollow-fiber test; assay type: functional
[26] = Growth inhibition of human KBV1 cells implanted intraperitoneally to NCr nu/nu mouse at 4.39 to 35.1 umol/kg, ip administered from day 3 to 6 after implantation measured on day 7 by MTT-based hollow-fiber test; assay type: functional, KB-V1
[27] = test system: SW626; test: Growth inhibition of human SW626 cells implanted intraperitoneally to NCr nu/nu mouse at 128 to 512 umol/kg, ip administered from day 3 to 6 after implantation measured on day 7 by MTT-based hollow-fiber test; assay type: functional
[28] = test system: SW626; test: Growth inhibition of human SW626 cells implanted subcutaneously to NCr nu/nu mouse at 128 to 512 umol/kg, ip administered from day 3 to 6 after implantation measured on day 7 by MTT-based hollow-fiber test; assay type: functional
[29] = test system: Mus musculus; test: Toxicity in NCr nu/nu mouse subcutaneously implanted with human SW626 cells assessed as body weight change at 128 to 512 umol/kg, ip administered from day 3 to 6 after implantation measured on day 7; assay type: organism-based; details: in vivo
[30] = test system: MCF7; test: Cytotoxicity against human MCF7 cells after 72 hrs by SRB assay; details: MCF7, 72 h
[31] = Cytotoxicity against human BC1 cells after 72 hrs by SRB assay; details: BC1, 72 h

CC(=O)O[C@H]1C(=O)[C@@]2(C)[C@H]([C@H](OC(=O)c3ccccc3)[C@]3(O)C[C@H](OC(=O)[C@H](O)[C@@H](NC(=O)c4ccccc4)c4ccccc4)C(C)=C1C3(C)C)[C@]1(OC(C)=O)CO[C@@H]1C[C@@H]2O [PACLITAXEL]
Activity [1]: 1.7 g
Activity [2]: 1.4 g
Activity [3]: 1.8 g
Activity [4]: 1.1 g
Activity [5]: Non-toxic
Activity [6]: Non-toxic
Activity [7]: Non-toxic
Activity [8]: 9.4%
Activity [9]: 6.7%
Activity [10]: 8.2%
Activity [11]: 7.8%
inhibition (INH) [12]: 98.7%
inhibition (INH) [13]: 19.5%
inhibition (INH) [14]: 13.1%
inhibition (INH) [15]: 0%
Activity [16]: inactive
IC50 [17]: 0.07 µM
IC50 [18]: 0.02 µM
IC50 [19]: 0.02 µM
IC50 [20]: 0.01 µM
IC50 [21]: > 2.3 µM
IC50 [22]: 0.02 µM
IC50 [23]: 0.02 µM
IC50 [24]: 1e-05 µM
inhibition (INH) [25]: 70.2%
inhibition (INH) [26]: 0%

CC1(C)CCC2=C(O1)C(=O)c1ccccc1C2=O [ALPHA-LAPACHONE]
inhibition (INH) [27]: 0%
inhibition (INH) [28]: 10.3%
Activity [29]: 0.3 g
IC50 [17]: 7.9 µM
IC50 [18]: 0.8 µM
IC50 [30]: 38 µM
IC50 [19]: 29.3 µM
IC50 [20]: 21.9 µM
IC50 [21]: 34.3 µM
IC50 [22]: 53.7 µM
IC50 [23]: 40.9 µM
IC50 [31]: 27.7 µM
IC50 [24]: 12.4 µM
